These results are taken from patent US20250352675A1, “CA-IX TARGETING FLUORESCENT PROBES” (BRACCO IMAGING S.P.A., priority 2022, published 2025).

Data set [1] deals with T1, recombinant bovine CAII enzyme (bCAII) (Bos taurus, UniProt P00921).
T1 construct: purchased Sigma-Aldrich; host or cells: E. coli
In words: Dansylamide (DNSA) displacement fluorescence assay on carbonic anhydrase catalytic site. It is filed as binding. To be noted: 0.25 μM bCAII, 5 μM DNSA, 20 mM Tris pH 8; triplicate; read-out: CAII receptor affinity (KD). As to the method: The binding affinity of the compounds of formula (I) to Carbonic Anhydrase (CA) catalytic site was determined to assess the targeting efficacy of the molecular vectors, even after labeling the targeting ligand with the fluorescent portion of the probe.
Such enzyme in fact is highly available and has a catalytic site with high degree of homology in different carbonic anhydrase isoforms (Aggarwal M. et al., J Enzyme Inhib Med Chem 2013; 28(2): 267-277).
The dissociation constant (Ko) of compounds of formula (I) for bCAII was estimated by performing a fluorescence-based assay, exploiting the drop of fluorescence deriving from the displacement of carbonic anhydrase-bound dansylamide (DNSA) in presence of competitors and was adapted for application in 96-well plates from Wang S C et al., Biochem Mol Biol Educ. 2006, 34(5): 364-368. […] In both cases DNSA is excited at about 320 nm. Thus, excitation of carbonic anhydrase aromatic residues (Trp) at 285 nm generates an emission at 340 nm, that is quenched in presence of bound DNSA. The quenching occurs by FRET (fluorescence resonance energy transfer) to bound DNSA, which is in turn excited, emitting at 460 nm.
Molecules that bind to CA in the same binding site of DNSA, such as sulfonamides or derivatives, competitively displace DNSA from CA. The degree of displacement is function of the affinity of competitors and can be followed through the drop of fluorescence at 460 nm.
In detail, 5-(Dimethylamino)-1-naphthalenesulfonamide (dansylamide, DNSA, Sigma-Aldrich 218898) was reconstituted in 20 mM Tris pH 8, aliquoted and stored at −20° C.; bCAII (recombinant, expressed in E. Coli, Sigma-Aldrich) was divided in aliquots and stored at −20° C.
DNSA fluorescence emission at 462 nm from each well was recorded after excitation at 285 nm (Trp wavelength of excitation) and consequent selective excitation of DNSA bound to bCAII by FRET. Fractional saturation of bCAII was experimentally determined through normalization of fluorescence data between 1 (no compounds) and 0 (maximal DNSA displacement by presence of binding competitors), according to the equation below: […]
where r is fractional saturation, FLobs is the recorded fluorescence intensity, FLmin is the fluorescence intensity recorded at maximal concentration of compounds, and FLmax is fluorescence recorded in absence of compounds.
The KD of CA-binding compounds (=KDcomp) was then derived by mathematical fitting of experimental data according to the equation: […]
Mathematical fitting was performed using Microsoft Excel Solver.
All compounds were tested in triplicate.

Data set [2] has as its system HT-29 cells. The experiment in a line: Time-dependent cell uptake / internalization in HT-29 cells by flow cytometry. The format is cell-based, human. To be noted: 1 μM; for Slope of cell-associated fluorescence increase / total cell-associated fluorescence over time: 37° C.; for Slope of cell-associated fluorescence increase: 1-6 hours; for total cell-associated fluorescence over time: 1 to 6 hours; for % internalization (mean ± std. dev.): after 2 hours at 37° C. As to the method:
(§1) The HT-29 cells were used as in vitro model to assess the cell uptake of the CA-IX targeting compounds of the invention, more specifically whether cellular internalization of compounds occurred after targeting to cell-surface-expressed CA-IX. Cellular uptake was evaluated by flow cytometry. […] Treatment with unconjugated dyes were used to estimate non-specific CA-IX-independent cellular uptake. Cell incubation on ice was used to discriminate the cell-associated fluorescence deriving from internalized and cell-surface associated compounds (37° C.), from the one deriving from solely cell surface-bound compounds (on ice). Treatment of HT-29 cells, grown in 24-well plates, was performed by rinsing cells in DPBS and then by incubation with treatment solutions, for the indicated times and temperatures, in the dark. At the end of treatment, cells were rinsed 3 times with cold DPBS, and detached from the plate with StemPro® Accutase® Cell Dissociation Reagent, collected in 1.5 mL tubes after dilution in DPBS and centrifuged (5 minutes, 350 RCF, 4° C.). The supernatant was then discarded, and the cell pellet was resuspended in 300 μL of cold FACS buffer, or in a suitable volume in order to obtain no more than 1,000 recorded events per μL during FACS analysis. Samples were analyzed with the flow cytometer Accuri™ C6 (BD Biosciences) using the 640 nm excitation laser and the emission 780/60 nm filter. At least 15000 valid events were collected for each sample. At the end of analysis, each sample was plotted in histograms, being X the fluorescence intensity (FL4-A) in log scale and Y the counts. Usually, a gaussian distribution of the cell population was observed. The data retrieved were the mean fluorescence of each population, considered the fluorescence intensity value of the corresponding sample. Independent replicates were performed for each experimental condition. Normalized cell-associated fluorescence was calculated with the following formula: […]
To evaluate the time dependent uptake, the experiments were conducted from 1 to 6 hours of cell treatment with a compound concentration of 1 μM, both on ice (internalization blocked) and at 37° C. (internalization-permissive temperature) in order to differentiate cell-associated fluorescence deriving from internalized compounds from that due to cell surface-associated one. The cell surface-associated fluorescence remained roughly constant over time while the binding of the corresponding unconjugated dyes was undetectable. […] The internalization potential was calculated as percentage of internalized compounds after 2 hours of cell treatment (arbitrarily chosen) at 37° C.
In general terms: In flow cytometry, cells or beads pass a laser one at a time.

Data set [3] is described as follows: Optical characterization (excitation/emission maxima, molar extinction coefficient). It is filed as physicochemical. To be noted: in water.
Data set [4] can be described thus: Ex vivo biodistribution, organ-to-muscle ratio. The format is in vivo, mice. As to conditions: 1 nmol/mouse, 24 hours after administration. How it is done:
(§2) The ex vivo biodistribution of the representative compounds 1, 2 and 3 and of the reference compound HF-1 (at 1 nmol/mouse) was evaluated in HT-29 excised tumors and tissues at the end of the in vivo OI sessions 24 hours post intravenous administration. At the end of the in vivo experiment, animals were euthanized by overdose of gaseous anesthesia followed by cervical dislocation. Tumor tissue, muscle, and other organs of interest were removed for ex vivo fluorescent signal measurements. The fluorescence signal intensity was measured by the IVIS Spectrum system. Regions of interest (ROIs) were drawn around each organ and tumor using the Living Image Software (PerkinElmer) and evaluating signal intensity in the tissues (expressed as Average Radiant Efficiency). The ratio between the fluorescence signal in the organs and tumor was then calculated to assess the contrast to hind limb muscle (representing the background).
Moreover, FIG. 6 (b) and Table VIII show the accumulation and distribution of the fluorescent probes in the dissected organs, reporting the ex vivo values of organs-to-muscle ratio from samples collected at 24 hours after the administration of representative compounds 1, 2 and 3 and of the reference compound HF-1 (1 nmol/mouse).

Data set [5] has as its system HT-29 cells. The experiment in a line: Receptor-mediated uptake: competition with 100x excess of acetazolamide in HT-29 cells. The format is cell-based, human. As to conditions: 1 μM, 2 hours at 37° C., relative to uptake without acetazolamide. How it is done: as §1
In data set [6] the test system is HT-29 tumor. The experiment in a line: Ex vivo tumor-to-background ratio in excised HT-29 tumors. Set-up: species or system mice. As to conditions: 1 nmol/mouse, samples collected 24 hours after administration; tumor vs hind limb muscle. How it is done:
as §2

T1 sequence (P00921 whole entry): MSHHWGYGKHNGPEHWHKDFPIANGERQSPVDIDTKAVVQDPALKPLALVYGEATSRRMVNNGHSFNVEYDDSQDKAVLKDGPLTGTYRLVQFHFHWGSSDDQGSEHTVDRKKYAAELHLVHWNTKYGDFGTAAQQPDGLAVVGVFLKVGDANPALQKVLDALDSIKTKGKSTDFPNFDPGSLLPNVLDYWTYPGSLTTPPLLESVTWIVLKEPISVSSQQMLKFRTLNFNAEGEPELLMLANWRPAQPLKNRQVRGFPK

In general, Kd refers to the constant that tells how readily two partners part at equilibrium. As to `CC1(C)C(/C=C/C2=C(Oc3ccc(S(=O)(=O)O)cc3)C(=C/C=C3/N(CCCCS(=O)(=O)O)c4ccc(S(=O)(=O)O)cc4C3(C)C)/CCC2)=[N+](CCCCS(=O)(=O)[O-])c2ccc(C(=O)NCCCCCCCC(=O)Nc3nnc(S(N)(=O)=O)s3)cc21` [Compound 3], the Kd in data set [1] was determined as 3.8 ± 0.5 nM. For the same molecule, in data set [2], the “Slope of cell-associated fluorescence increase” value was found to be 2.7, the “total cell-associated fluorescence over time” value was “increased over time” and the “% internalization (mean ± std. dev.)” value was 49.2 ± 3.9%. In addition, the molar extinction coefficient (ε) in data set [3] was 240000 M⁻¹ cm⁻¹. Further, in data set [4], the “Organ-to-muscle ratio, intestine” value amounted to 1.5 ± 0.2; the “Organ-to-muscle ratio, kidney” value is recorded as 4.7 ± 1.6; the “Organ-to-muscle ratio, liver” value is reported as 3.1 ± 0.6; the “Organ-to-muscle ratio, skin” value is 1.0 ± 0.1. In data set [4], the “Organ-to-muscle ratio, spleen” value amounted to 1.0 ± 0.1 and the “Organ-to-muscle ratio, stomach” value stood at 3.5 ± 0.3. Further, the “% uptake in presence of 100x excess of acetazolamide” value (“% uptake in presence” below) in data set [5] turned out to be 18.1 ± 11.5%. Besides, the “ex vivo TBR ± SD, HT-29 tumor” value in data set [6] stood at 5.8 ± 2.2.

On to `CC1(C)C(/C=C/C=C/C=C/C=C2/N(CCCCS(=O)(=O)O)c3ccc(S(=O)(=O)O)cc3C2(C)C)=[N+](CCCCS(=O)(=O)[O-])c2ccc(C(=O)NCCCCCCCC(=O)Nc3nnc(S(N)(=O)=O)s3)cc21` [Compound 2], for which the dissociation constant (Kd) in data set [1] is 3.7 ± 0.3 nM. In data set [2], the “Slope of cell-associated fluorescence increase” value was 1.9, the “total cell-associated fluorescence over time” value is recorded as “increased over time” and the “% internalization (mean ± std. dev.)” value is 40.8 ± 9.9%. Also, in data set [3], the molar extinction coefficient (ε) amounted to 260000 M⁻¹ cm⁻¹. Also, in data set [4], the “Organ-to-muscle ratio, intestine” value turned out to be 1.2 ± 0.1; the “Organ-to-muscle ratio, kidney” value was 4.0 ± 1.7; the “Organ-to-muscle ratio, liver” value is on record as 2.7 ± 0.4; the “Organ-to-muscle ratio, skin” value was 1.6 ± 0.4. Moreover, in data set [4], the “Organ-to-muscle ratio, spleen” value turned out to be 1.0 ± 0.1 and the “Organ-to-muscle ratio, stomach” value came to 7.1 ± 1.2. Also, the “% uptake in presence” value in data set [5] was found to be 28.4 ± 2.2%. Besides, the “ex vivo TBR ± SD, HT-29 tumor” value in data set [6] was found to be 15.2 ± 5.9.

As to `CC1(C)C(/C=C/C=C/C=C/C=C2/N(CCCCS(=O)(=O)O)c3ccc(C(=O)NC[C@H](O)[C@@H](O)[C@H](O)[C@H](O)CO)cc3C2(C)C)=[N+](CCCCS(=O)(=O)[O-])c2ccc(C(=O)NCCCCCCCC(=O)Nc3nnc(S(N)(=O)=O)s3)cc21` [Compound 1], the Kd in data set [1] stood at 6.2 ± 0.6 nM. For the same molecule, in data set [2], the “Slope of cell-associated fluorescence increase” value is listed as 1.0, the “total cell-associated fluorescence over time” value is “increased over time” and the “% internalization (mean ± std. dev.)” value was 22.8 ± 8.2%. In addition, the molar extinction coefficient (ε) in data set [3] was determined as 240000 M⁻¹ cm⁻¹. Besides, in data set [4], the “Organ-to-muscle ratio, intestine” value came out at 1.5 ± 0.3; the “Organ-to-muscle ratio, kidney” value came to 8.3 ± 1.9; the “Organ-to-muscle ratio, liver” value worked out at 3.3 ± 1.1; the “Organ-to-muscle ratio, skin” value stood at 1.1 ± 0.2. In data set [4], the “Organ-to-muscle ratio, spleen” value was found to be 0.5 ± 0.1 and the “Organ-to-muscle ratio, stomach” value is reported as 11.3 ± 3.2. In addition, the “% uptake in presence” value in data set [5] is 16.4 ± 1.9%. Also, in data set [6], the “ex vivo TBR ± SD, HT-29 tumor” value was 16.4 ± 4.4.
